Assay results as given in patent US5047502A, “Gastrin releasing peptide antagonist” (Merck and Co., Inc., priority 1989, dated 1991).
Where two headings read alike, the source gives them in different places. Residues, ends and D or L forms follow the SMILES beside them. No end group written: not given here. *: point of attachment. OBn = c1ccc(CO*)cc1; X1 = CCCCCO*; OPr = CCCO*; X2 = CCCCO*

How the values were obtained:
GRP receptor = biological target: T1, GRP receptor (Mus musculus, UniProt P21729); experiment: Binding inhibition of radiolabelled GRP (Procedure A); conditions: for EC50: [Antagonist] reducing specific binding of 7 nM [3H-Phe15] GRP 15-27 to 50%, Swiss 3T3 cell monolayers
T1 construct: Swiss 3T3 fibroblasts were used in these tests as the source of GRP receptor; endogenous in cells; host or cells: Swiss 3T3 fibroblasts (from Dr. K. Brown, Institute of Animal Physiology, Cambridge, U.K.)
T1 sequence (P21729 whole entry): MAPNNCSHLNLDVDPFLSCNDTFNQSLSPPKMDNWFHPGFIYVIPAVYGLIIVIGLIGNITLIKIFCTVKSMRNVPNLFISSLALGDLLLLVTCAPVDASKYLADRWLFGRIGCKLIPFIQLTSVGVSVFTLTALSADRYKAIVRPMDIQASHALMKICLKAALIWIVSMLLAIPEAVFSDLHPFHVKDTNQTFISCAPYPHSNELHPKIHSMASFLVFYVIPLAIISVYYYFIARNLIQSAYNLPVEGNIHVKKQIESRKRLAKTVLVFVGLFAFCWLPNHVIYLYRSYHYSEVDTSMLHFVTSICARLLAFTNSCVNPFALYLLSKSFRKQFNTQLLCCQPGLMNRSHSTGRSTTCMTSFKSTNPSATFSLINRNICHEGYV
Description: Swiss 3T3 cells, obtained from Dr. K. Brown (Institute of Animal Physiology, Cambridge, U.K.). The cells were grown to confluency in Costar 12-well plates containing DMEM (Gibco) supplemented with 10% fetal bovine serum, 2 mM glutamine and 1% penicillin-streptomycin. The cells were washed twice with binding buffer [1:1 DMEM:Waymouths MB752/1 medium, plus 1 mg/ml BSA (Fraction V, Calbiochem)]. The antagonist was dissolved in 10 mM HCl, and diluted to the appropriate concentration in binding buffer. The antagonist was then added to the cells, followed by radiolabelled GRP at a final concentration of 7 nM. After 30 minutes incubation at 37° C., the supernatant liquid was removed and the cell monolayer rinsed four times with washing buffer (150 mM NaCl, 20 mM Na2 HPO4, 5 mM KCl, 1.8 mM KH2 PO4, 1 mg/ml BSA). The cells were then lysed with 1 ml/well of lysis buffer (1% Triton X-100, 0.1% BSA), and the solution was aspirated into scintillation vials for counting. Each data point was collected in triplicate.
Binding Inhibition: [Antagonist] which reduces the specific binding of 7 nM [^3 H-Phe^15 ] GRP 15-27 to 50% of the level observed in the absence of antagonist. Assay performed in Swiss 3T3 cell monolayers.

Swiss 3T3 cells [1] = format: cell-based; conditions: for EC50: 3 h
Description: Swiss 3T3 cells were grown in monolayer culture in 24-well plates (Costar) in serum-free DMEM for 48 hours, at which time the peptide being tested and 23 nM ^3 H-thymidine were added. […] The cells were harvested with a Skatron filter apparatus, and the filters counted in a scintillation counter. Mitogenic Stimulation: [Agonist] which stimulates uptake of ^3 H-thymidine to 50% of the maximal level caused by [Nle^27 ] GRP 15-27. Assay performed on Swiss 3T3 monolayers.

Swiss 3T3 cells [2] = format: cell-based; conditions: for EC50: 3 h; remark: listed apart in the source
Description: Swiss 3T3 cells were grown in monolayer culture in 24-well plates (Costar) in serum-free DMEM for 48 hours, at which time the GRP or a GRP homologue, the antagonist and 23 nM ^3 H-thymidine were added. […] The cells were harvested with a Skatron filter apparatus, and the filters counted in a scintillation counter.
Mitogenic Inhibition: [Antagonist] which reduces the uptake of ^3 H-thymidine caused by 7 nM [Nle^27 ] GRP 15-27 to 50% of the level observed in the absence of antagonist. […] GRP 1-27 as the mitogen. Assay performed on Swiss 3T3 monolayers.

H345 SCLC cells = experiment: Stimulation of Ca2+ release in SCLC (Procedure D); format: cell-based; conditions: 100 nM GRP, read-out: [Ca2+]i in SCLC IC50
Description: Following the procedure of Heikkila et al., J. Biol. Chem. 262 16456 (1987), approximately 1×10^8 H345 SCLC cells, maintained in RPMI-1640 (Ro) medium supplemented with selenium, insulin, and transferrin, were harvested by settling and washing with Ro. They were then resuspended in 2 ml Ro, to which 1.2 nmol Fura-2/AM per 10^6 cells was added. After a 15 minute incubation at 37° C., the cells were diluted to 10 ml with Ro and incubated for 1 hour at 37° C. The cells were then centrifuged and resuspended in HEPES-saline (140 mM NaCl, 5 mM KCl, 5 mM glucose, 1 mM CaCl2, 1 mM MgCl2, 20 mM HEPES, pH 7.4) at a density of 2.5-5×10^6 cells/ml. The cells were kept on ice for up to 2 hours before being used. Ca^2+ measurements were performed at 37° C. in an Aminco SPF-500 fluorimeter. The excitation wavelength was 340 nm, the emission wavelength 510 nm. Two ml of cell suspension was periodically resuspended in a 3 ml plastic cuvette. They were equilibrated at 37° C. for at least 5 minutes before data was collected. After a stable baseline was established, a mixture of the compound of interest an 100 nM GRP was added, and data was collected for approximately 5 minutes. At that time, a challenge dose of GRP was added, and data was collected for an additional 5 minutes. […] Baseline fluorescence was measured after the subsequent addition of 40 μl 2M Tris (pH 9.5) and 64 μl 0.2M EGTA.

[3] = assays of example 2 repeated, unit inferred

## CCCOC(=O)[C@H](CC(C)C)NC(=O)[C@H](Cc1c[nH]cn1)NC(=O)CNC(=O)[C@@H](NC(=O)[C@H](C)NC(=O)[C@H](Cc1c[nH]c2ccccc12)NC(=O)[C@H](Cc1c[nH]cn1)NC(C)=O)C(C)C [AcHisTrpAlaValGlyHisLeu--O(CH2)2 CH3] (Ac-HWAVGHL-OPr)
GRP receptor; [3]
  IC50: 3.5 nM

## CCCCOC(=O)[C@H](CC(C)C)NC(=O)[C@H](Cc1c[nH]cn1)NC(=O)CNC(=O)[C@@H](NC(=O)[C@H](C)NC(=O)[C@H](Cc1c[nH]c2ccccc12)NC(=O)[C@H](Cc1c[nH]cn1)NC(C)=O)C(C)C [AcHisTrpAlaValGlyHisLeu--O(CH2)3 CH3] (Ac-HWAVGHL-X2)
GRP receptor; [3]
  IC50: 6.8 nM

## CCCCCOC(=O)[C@H](CC(C)C)NC(=O)[C@H](Cc1c[nH]cn1)NC(=O)CNC(=O)[C@@H](NC(=O)[C@H](C)NC(=O)[C@H](Cc1c[nH]c2ccccc12)NC(=O)[C@H](Cc1c[nH]cn1)NC(C)=O)C(C)C [AcHisTrpAlaValGlyHisLeu--O(CH2)4 CH3] (Ac-HWAVGHL-X1)
GRP receptor; [3]
  IC50: 12.4 nM

## CC(=O)N[C@@H](Cc1c[nH]cn1)C(=O)N[C@@H](Cc1c[nH]c2ccccc12)C(=O)N[C@@H](C)C(=O)N[C@H](C(=O)NCC(=O)N[C@@H](Cc1c[nH]cn1)C(=O)N[C@@H](CC(C)C)C(=O)OCc1ccccc1)C(C)C [AcHisTrpAlaValGlyHisLeu--OCH2 C6 H5] (Ac-HWAVGHL-OBn)
GRP receptor; [3]
  IC50: 5.4 nM

## COC(=O)[C@H](CC(C)C)NC(=O)[C@H](Cc1c[nH]cn1)NC(=O)CNC(=O)[C@@H](NC(=O)[C@H](C)NC(=O)[C@H](Cc1c[nH]c2ccccc12)NC(=O)[C@H](Cc1c[nH]cn1)NC(C)=O)C(C)C [AcHisTrpAlaValGlyHisLeu--OCH3] (Ac-HWAVGHL-OMe)
GRP receptor; [3]
  IC50: 7.7 nM

## CCOC(=O)[C@H](CC(C)C)NC(=O)[C@H](Cc1c[nH]cn1)NC(=O)CNC(=O)[C@@H](NC(=O)[C@H](C)NC(=O)[C@H](Cc1c[nH]c2ccccc12)NC(=O)[C@H](Cc1c[nH]cn1)NC(C)=O)C(C)C [N-acetyl His Trp Ala Val Gly His Leu-OCH2 CH3] (Ac-HWAVGHL-OEt)
GRP receptor; average of 6 experiments
  IC50: 3.9 nM
Swiss 3T3 cells [1]; at concentrations up to 30 μM
  Mitogenic Stimulation: none
Swiss 3T3 cells [2]; average of 2 experiments, read-out: Mitogenic Inhibition IC50
  IC50: 15 nM
H345 SCLC cells
  IC50: 400 nM

## Ac-HWAVGHL-NH2 [Ac--His--Trp--Ala--Val--Gly--His--LeuNH2]
GRP receptor
  EC50: 2000 nM
Swiss 3T3 cells [1]
  EC50: > 100000 nM
Swiss 3T3 cells [2]
  EC50: 3000 nM

## HWAVGHL-NH2 [His--Trp--Ala--Val--Gly--His--LeuNH2]
GRP receptor
  EC50: 20000 nM
Swiss 3T3 cells [1]
  EC50: > 100000 nM
Swiss 3T3 cells [2]
  EC50: 50000 nM
